Assay results as given in paper PMC10850145, “Hormonal steroids induce multidrug resistance and stress response genes in Neisseria gonorrhoeae by binding to MtrR” (Nature Communications, 2024).
Several values for one entry are separate records, joined by “and”; a condition that tells them apart may be missing. Identical values can stand only once. Like-named read-outs stand apart in the source and are kept apart here.

What was measured:
[1] = system: FA19-rpoH-lacZ; assay: Gonococcal growth in liquid culture (GC broth) with hormones (Fig S7)
[2] = system: rpoH-lacZ expression; type: cell-based, Neisseria gonorrhoeae; conditions: for Miller units, single well: individual replicate; for Miller units: plate rows 5-8 (rpoH), single well; for Plate-6 (Testosterone) Miller units, Mean / Plate-6 (Testosterone) Miller units: 6.25 µM, right (rpoH) half of sheet
[3] = 6.25 µM hormone, plate columns 1-6 (WT)

C[C@]12CC[C@H]3[C@@H](CCC4=CC(=O)CC[C@@]43C)[C@@H]1CC[C@@H]2O [Testosterone, testosterone]
growth curve reading after BLANKING (testosterone run) ([1]; 0 hr, 0.1 µM): 0.013 | growth curve reading, raw replicates (testosterone run) ([1]; 0 hr, 0.1 µM): 0.046 | growth curve reading after BLANKING (testosterone run) ([1]; 0 hr, 1 µM): 0.013 | growth curve reading, raw replicates (testosterone run) ([1]; 0 hr, 1 µM): 0.046 | growth curve reading after BLANKING (testosterone run) ([1]; 0 hr, 10 µM): 0.013 | growth curve reading, raw replicates (testosterone run) ([1]; 0 hr, 10 µM): 0.046 | growth curve reading after BLANKING (testosterone run) ([1]; 0 hr, 50 µM): 0.013 | growth curve reading, raw replicates (testosterone run) ([1]; 0 hr, 50 µM): 0.046 | growth curve reading after BLANKING (testosterone run) ([1]; 0 hr, 100 µM): 0.013 | growth curve reading, raw replicates (testosterone run) ([1]; 0 hr, 100 µM): 0.046 | growth curve reading after BLANKING (testosterone run) ([1]; 2 hr, 0.1 µM): 0.048 | growth curve reading, raw replicates (testosterone run) ([1]; 2 hr, 0.1 µM): 0.082 and 0.080 and 0.081 | growth curve reading after BLANKING (testosterone run) ([1]; 2 hr, 1 µM): 0.047 | growth curve reading, raw replicates (testosterone run) ([1]; 2 hr, 1 µM): 0.077 and 0.081 and 0.082 | growth curve reading after BLANKING (testosterone run) ([1]; 2 hr, 10 µM): 0.047 | growth curve reading, raw replicates (testosterone run) ([1]; 2 hr, 10 µM): 0.079 and 0.083 | growth curve reading after BLANKING (testosterone run) ([1]; 2 hr, 50 µM): 0.049 | growth curve reading, raw replicates (testosterone run) ([1]; 2 hr, 50 µM): 0.083 and 0.081 | growth curve reading after BLANKING (testosterone run) ([1]; 2 hr, 100 µM): 0.048 | growth curve reading, raw replicates (testosterone run) ([1]; 2 hr, 100 µM): 0.089 and 0.075 and 0.078 | growth curve reading after BLANKING (testosterone run) ([1]; 3 hr, 0.1 µM): 0.071 | growth curve reading after BLANKING (testosterone run) ([1]; 3 hr, 1 µM): 0.076 | growth curve reading after BLANKING (testosterone run) ([1]; 3 hr, 10 µM): 0.073 | growth curve reading after BLANKING (testosterone run) ([1]; 3 hr, 50 µM): 0.076 | growth curve reading after BLANKING (testosterone run) ([1]; 3 hr, 100 µM): 0.077 | growth curve reading, raw replicates (testosterone run) ([1]; 3 hr, 100 µM): 0.116 | growth curve reading after BLANKING (testosterone run) ([1]; 4.03 hr, 0.1 µM): 0.095 | growth curve reading, raw replicates (testosterone run) ([1]; 4.03 hr, 0.1 µM): 0.117 | growth curve reading after BLANKING (testosterone run) ([1]; 4.03 hr, 1 µM): 0.101 | growth curve reading after BLANKING (testosterone run) ([1]; 4.03 hr, 10 µM): 0.099 | growth curve reading after BLANKING (testosterone run) ([1]; 4.03 hr, 50 µM): 0.102 | growth curve reading after BLANKING (testosterone run) ([1]; 4.03 hr, 100 µM): 0.108 | growth curve reading, raw replicates (testosterone run) ([1]; 4.03 hr, 100 µM): 0.148 | growth curve reading after BLANKING (testosterone run) ([1]; 5.03 hr, 0.1 µM): 0.121 | growth curve reading, raw replicates (testosterone run) ([1]; 5.03 hr, 0.1 µM): 0.160 and 0.163 | growth curve reading after BLANKING (testosterone run) ([1]; 5.03 hr, 1 µM): 0.127 | growth curve reading, raw replicates (testosterone run) ([1]; 5.03 hr, 1 µM): 0.163 and 0.161 and 0.157 | growth curve reading after BLANKING (testosterone run) ([1]; 5.03 hr, 10 µM): 0.125 | growth curve reading, raw replicates (testosterone run) ([1]; 5.03 hr, 10 µM): 0.164 and 0.157 and 0.153 | growth curve reading after BLANKING (testosterone run) ([1]; 5.03 hr, 50 µM): 0.130 | growth curve reading, raw replicates (testosterone run) ([1]; 5.03 hr, 50 µM): 0.161 and 0.162 and 0.165 | growth curve reading after BLANKING (testosterone run) ([1]; 5.03 hr, 100 µM): 0.139 | growth curve reading, raw replicates (testosterone run) ([1]; 5.03 hr, 100 µM): 0.174 and 0.161 and 0.181 | growth curve reading after BLANKING (testosterone run) ([1]; 6.03 hr, 0.1 µM): 0.152 | growth curve reading, raw replicates (testosterone run) ([1]; 6.03 hr, 0.1 µM): 0.171 and 0.189 and 0.195 | growth curve reading after BLANKING (testosterone run) ([1]; 6.03 hr, 1 µM): 0.157 | growth curve reading, raw replicates (testosterone run) ([1]; 6.03 hr, 1 µM): 0.195 and 0.191 and 0.185 | growth curve reading after BLANKING (testosterone run) ([1]; 6.03 hr, 10 µM): 0.151 | growth curve reading, raw replicates (testosterone run) ([1]; 6.03 hr, 10 µM): 0.192 and 0.181 and 0.179 | growth curve reading after BLANKING (testosterone run) ([1]; 6.03 hr, 50 µM): 0.161 | growth curve reading, raw replicates (testosterone run) ([1]; 6.03 hr, 50 µM): 0.192 and 0.195 | growth curve reading after BLANKING (testosterone run) ([1]; 6.03 hr, 100 µM): 0.177 | growth curve reading, raw replicates (testosterone run) ([1]; 6.03 hr, 100 µM): 0.198 | growth curve reading after BLANKING (testosterone run) ([1]; 7.03 hr, 0.1 µM): 0.177 | growth curve reading, raw replicates (testosterone run) ([1]; 7.03 hr, 0.1 µM): 0.195 | growth curve reading after BLANKING (testosterone run) ([1]; 7.03 hr, 1 µM): 0.182 | growth curve reading, raw replicates (testosterone run) ([1]; 7.03 hr, 1 µM): 0.210 | growth curve reading after BLANKING (testosterone run) ([1]; 7.03 hr, 10 µM): 0.178 | growth curve reading, raw replicates (testosterone run) ([1]; 7.03 hr, 10 µM): 0.205 | growth curve reading, raw replicates (testosterone run) ([1]; 7.03 hr, 100 µM): 0.250 | growth curve reading after BLANKING (testosterone run) ([1]; 7.3 hr, 100 µM): 0.226 | growth curve reading, raw replicates (testosterone run) ([1]; 7.3 hr, 100 µM): 0.266 and 0.272 | growth curve reading after BLANKING (testosterone run) ([1]; […], 0.1 µM): 0.028 | growth curve reading after BLANKING (testosterone run) ([1]; […], 1 µM): 0.027 | growth curve reading after BLANKING (testosterone run) ([1]; […], 10 µM): 0.026 | growth curve reading after BLANKING (testosterone run) ([1]; […], 50 µM): 0.026 | growth curve reading after BLANKING (testosterone run) ([1]; […], 100 µM): 0.025 | Miller units, single well [2, 3]: 114 Miller units and 127 Miller units and 153 Miller units | Miller units, Mean ([2]; 6.25 µM hormone, plate columns 1-6 (WT), mean of 4 wells): 125 Miller units | Miller units, Mean ([2]; 6.25 µM hormone, plate columns 1-6 (WT), mean of plate rows 5-8 (rpoH)): 125 Miller units | Miller units [2, 3]: 114 Miller units and 127 Miller units and 153 Miller units and 108 Miller units | Miller units ([2]; 6.25 µM hormone, plate columns 7-12 (second strain not given)): 161 Miller units and 167 Miller units and 191 Miller units and 162 Miller units | Miller units, Mean ([2]; 6.25 µM hormone, plate columns 7-12 (second strain), mean of plate rows 5-8 (rpoH)): 170 Miller units | Miller units, single well ([2]; 6.25 µM hormone, plate columns 7-12 (second strain, not WT)): 161 Miller units and 167 Miller units and 191 Miller units | Miller units, Mean ([2]; 6.25 µM hormone, plate columns 7-12 (second strain, not WT), mean of 4 wells): 170 Miller units | Plate-6 (Testosterone) Miller units, Mean ([2]; plate column 3, mean of plate rows 5-8): 43 Miller units | Plate-6 (Testosterone) Miller units ([2]; plate column 3, plate rows 5-8, single wells): 39 Miller units and 46 Miller units and 47 Miller units | Plate-6 (Testosterone) Miller units, Mean ([2]; plate column 9, mean of plate rows 5-8): 64 Miller units | Plate-6 (Testosterone) Miller units ([2]; single wells): 55 Miller units and 57 Miller units and 65 Miller units and 80 Miller units | Miller units, single well ([2]; 12.5 µM hormone, plate columns 1-6 (WT)): 120 Miller units and 124 Miller units and 149 Miller units | Miller units, Mean ([2]; 12.5 µM hormone, plate columns 1-6 (WT), mean of 4 wells): 130 Miller units
